Test results: ChEMBL document CHEMBL1201862, “PubChem BioAssay data set” (2004)
Activity calls are given as the source filed them.

Tests used:
[1] = target: Glyceraldehyde-3-phosphate dehydrogenase (Homo sapiens, UniProt P04406)
[2] = target: Cyclin-dependent kinase 5/CDK5 activator 1 (Homo sapiens, UniProt Q00535); assay: CDK5/p35 kinase inhibitors, dose response, biochemical, cherry-picked samples, set 2 (AID 504545)
[3] = target: Serine/threonine-protein phosphatase PP1-alpha catalytic subunit (Homo sapiens, UniProt P62136); assay: PP1 phosphatase inhibitors, dose response, biochemical, fluorescence (AID 2403);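 further: phosphatase turnover of OMFP into fluorescent 3-O-methylfluorescein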
[4] = cells; assay type: functional, cell-based; conditions: HEK-CNG
[5] = system: Streptococcus sp. 'group A'; assay: growth inhibition of control SK(-) GAS strain, dose response, counter-screen for streptokinase expression inhibitor project, luminescence, kanamycin, BacTiterGlo, confirmation (AID 1900); assay type: functional, organism-based
[6] = inhibitors of HIV Env-driven cell fusion, dose response, cherry-pick (AID 652057); assay type: functional, cell-based
[7] = inhibitors of intracellular T. cruzi replication, confirmation, NIH3T3 host cells, beta-gal luminescence (AID 2044); assay type: functional, cell-based;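 further: intracellular parasites grown in NIH/3T3 mouse fibroblasts as host cells; luminescent beta-galactosidase reporter signal from transgenic T. cruzi replicating inside host cells; inhibitors lower the luminescence signal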
[8] = ZM109 Env clade C HIV-1 fusion inhibitors, dose response, HeLa effector, CEM target cells, luciferase, cherry-pick (AID 652058); assay type: functional, cell-based
[9] = HepG2 cell cytotoxicity, dose response, cytotoxicity control for Shn3 inhibitor project, CellTiter-Glo, cherry-picked (AID 624134); assay type: functional, cell-based
[10] = target: Serine/threonine-protein phosphatase (Homo sapiens, UniProt Q9BPW0); assay: Counterscreen for inhibitors of PP1: fluorescence-based biochemical high throughput dose response assay to identify inhibitors of Protein Phosphatase 5 (PP5). [Related pubchem assays: 2034 (Summary (PP5 inhibitors)), 1987 (PP5 inhibitors in singlate), 2235 (PP1 inhibitors in singlate)]
Sequence of Serine/threonine-protein phosphatase (Q9BPW0 whole entry, the tested form may be a part): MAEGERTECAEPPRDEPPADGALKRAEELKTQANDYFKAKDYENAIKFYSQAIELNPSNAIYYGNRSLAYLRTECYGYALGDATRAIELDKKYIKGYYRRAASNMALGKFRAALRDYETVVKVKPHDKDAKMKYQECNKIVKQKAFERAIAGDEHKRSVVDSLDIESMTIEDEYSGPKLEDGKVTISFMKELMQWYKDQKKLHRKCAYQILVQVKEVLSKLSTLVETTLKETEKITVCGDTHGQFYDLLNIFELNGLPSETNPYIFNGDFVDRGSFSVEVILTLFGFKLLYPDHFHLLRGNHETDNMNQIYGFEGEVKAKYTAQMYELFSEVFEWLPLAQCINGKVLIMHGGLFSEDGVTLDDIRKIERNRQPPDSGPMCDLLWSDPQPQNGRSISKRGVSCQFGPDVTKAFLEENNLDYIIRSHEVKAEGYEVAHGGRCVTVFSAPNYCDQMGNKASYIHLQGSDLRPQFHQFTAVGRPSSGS

[11] = CEM21 lymphoblast cell cytotoxicity, dose response, cytotoxicity control for viral fusion inhibitor project, CellTiter-Glo luminescence, cherry-picked (AID 652042); assay type: functional, cell-based;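 further: potency for signal decrease meaning cytotoxicity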
[12] = target: Sphingosine 1-phosphate receptor 2 (Homo sapiens, UniProt O95136); assay: Dose Response Cell Based Assay for Antagonists of the S1P2 Receptor. [Related pubchem assays: 856, 736 ]; assay type: functional
Sequence of Sphingosine 1-phosphate receptor 2 (O95136 whole entry): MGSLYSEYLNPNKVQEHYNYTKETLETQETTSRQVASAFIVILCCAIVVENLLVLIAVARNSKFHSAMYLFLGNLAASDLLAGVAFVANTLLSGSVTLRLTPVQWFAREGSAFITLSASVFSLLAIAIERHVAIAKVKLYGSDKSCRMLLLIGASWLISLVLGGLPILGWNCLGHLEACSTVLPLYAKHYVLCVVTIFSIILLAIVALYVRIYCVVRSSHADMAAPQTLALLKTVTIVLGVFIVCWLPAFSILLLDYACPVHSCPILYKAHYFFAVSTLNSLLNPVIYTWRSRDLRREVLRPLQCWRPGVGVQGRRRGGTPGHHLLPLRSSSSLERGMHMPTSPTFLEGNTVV

[13] = Shn3 3'UTR reporter inhibitors, dose response, cell-based, Clone20 osteoblasts, firefly luciferase, cherry-picked (AID 624132); assay type: functional;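 further: firefly luciferase luminescence from reporter carrying the Shn3 3'UTR in osteoblasts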
[14] = target: T1, Galanin receptor type 3 (Homo sapiens, UniProt O60755); assay: Fluorescence-based cell-based primary high throughput dose response assay to identify antagonists of the Galanin Receptor 3 (GalR3).; assay type: functional
T1 sequence (O60755 whole entry): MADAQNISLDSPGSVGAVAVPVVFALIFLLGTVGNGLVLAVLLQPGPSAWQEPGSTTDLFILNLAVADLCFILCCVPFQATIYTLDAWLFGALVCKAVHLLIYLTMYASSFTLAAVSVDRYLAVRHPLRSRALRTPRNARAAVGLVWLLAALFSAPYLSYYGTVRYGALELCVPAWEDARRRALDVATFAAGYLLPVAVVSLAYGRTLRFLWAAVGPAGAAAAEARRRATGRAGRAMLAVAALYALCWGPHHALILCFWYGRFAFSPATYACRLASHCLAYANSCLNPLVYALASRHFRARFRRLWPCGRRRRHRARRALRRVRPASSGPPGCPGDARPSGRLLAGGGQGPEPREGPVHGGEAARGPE

[15] = system: Vero; assay: cells; assay type: functional; conditions: Chlorocebus sabaeus
[16] = inhibitors of clade B AD8 Env fusion, dose response, cell-based, cherry-pick (AID 652062); assay type: functional;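 further: luciferase signal from cell-cell fusion driven by HIV-1 clade B AD8 Env; potency is for inhibitors of fusion seen as a drop in luminescence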
[17] = control 3'UTR Renilla luciferase suppression, dose response, counter-screen for Shn3 inhibitor project, cell-based, Clone20-Shn3RL, cherry-picked (AID 624133); assay type: functional
[18] = cytotoxicity toward NIH3T3 fibroblasts, dose response, counter-screen, cell-based, ATP luminescence, mouse fibroblasts (AID 2010); assay type: functional;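 further: cells exposed to compound for about 90 hours before reading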
[19] = system: Streptococcus; assay: Group A Streptococcus viability loss, dose response, counter-screen for streptokinase expression inhibitor project, luminescence, BacTiterGlo (AID 1915); assay type: functional, organism-based;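 further: potency for reduction of bacterial viability or growth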
[20] = off-target signal loss in HeLa-CEM21 co-culture – HeLa F-luc CTL cells, cherry-picked, counter-screen for HIV-1 Env fusion inhibitor project, dose response (AID 652040); assay type: functional, cell-based;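 further: potency for signal decrease marking cytotoxic or nonspecific inhibition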
[21] = target: T2, COUP transcription factor 2 (Homo sapiens, UniProt P24468); assay: Luminescence-based cell-based high throughput dose response assay to identify inhibitors of COUP-TFII (NR2F2).; assay type: functional;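 further: HEK293 cells transiently cotransfected with COUP-TFII expression vector and reporter; luciferase reporter luminescence driven by COUP-TFII from the pX2-168 reporter plasmid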
T2 sequence (P24468 whole entry): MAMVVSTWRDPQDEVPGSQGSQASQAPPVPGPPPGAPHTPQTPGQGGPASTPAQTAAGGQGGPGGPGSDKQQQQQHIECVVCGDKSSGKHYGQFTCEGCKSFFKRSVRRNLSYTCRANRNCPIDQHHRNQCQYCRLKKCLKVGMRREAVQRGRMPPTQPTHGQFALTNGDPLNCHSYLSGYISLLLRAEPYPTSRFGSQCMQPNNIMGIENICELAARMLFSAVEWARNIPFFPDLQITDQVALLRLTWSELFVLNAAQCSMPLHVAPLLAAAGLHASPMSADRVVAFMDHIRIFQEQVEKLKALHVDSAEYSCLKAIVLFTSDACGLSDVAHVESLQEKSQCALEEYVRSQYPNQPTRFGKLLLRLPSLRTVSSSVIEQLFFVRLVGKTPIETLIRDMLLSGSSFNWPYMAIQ

[22] = cytotoxicity in HPDE-C7 cells, cell-based, fluorescence, HTS (AID 430); assay type: functional; conditions: Homo sapiens
[23] = microbe, parasite or virus in culture; assay type: functional; conditions: Mycobacterium tuberculosis
[24] = target: T3, Heat shock factor protein 1 (Mus musculus, UniProt P38532); assay: HSF1 potentiators in luciferase reporter cells, confirmation, cell-based, NIH3T3, luminescence, dose retest (AID 435004); assay type: functional;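 further: stress induced by proteasome inhibitor MG132 added 30 min after compound; luciferase reporter driven by HSF1 response element in NIH3T3 cells; actives raise luminescence as potentiators of the MG132 stress response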
T3 sequence (P38532 whole entry): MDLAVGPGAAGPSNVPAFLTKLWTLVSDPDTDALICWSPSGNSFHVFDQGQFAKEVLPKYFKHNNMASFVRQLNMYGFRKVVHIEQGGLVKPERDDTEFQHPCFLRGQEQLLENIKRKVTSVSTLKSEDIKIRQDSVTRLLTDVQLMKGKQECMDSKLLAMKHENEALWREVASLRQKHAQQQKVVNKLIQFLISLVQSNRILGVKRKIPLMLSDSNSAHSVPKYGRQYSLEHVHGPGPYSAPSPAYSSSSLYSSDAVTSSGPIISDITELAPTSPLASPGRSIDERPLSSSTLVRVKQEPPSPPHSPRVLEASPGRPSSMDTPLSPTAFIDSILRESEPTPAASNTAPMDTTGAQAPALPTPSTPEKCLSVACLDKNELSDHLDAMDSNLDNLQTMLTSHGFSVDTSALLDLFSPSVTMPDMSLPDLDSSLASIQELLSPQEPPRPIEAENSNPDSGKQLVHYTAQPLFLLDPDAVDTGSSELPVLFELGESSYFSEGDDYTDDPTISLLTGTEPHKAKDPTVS

[25] = target: G-protein coupled receptor 35 (Homo sapiens, UniProt Q9HC97); assay: GPR35 antagonists blocking zaprinast-driven arrestin recruitment, primary screen, imaging, U2OS, beta-arrestin-GFP, zaprinast agonist (AID 2058); assay type: functional;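 further: antagonist potency meaning inhibition of agonist-induced arrestin redistribution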
[26] = cytotoxicity in KRAS-transformed pancreatic duct cells, primary screen, cell-based, fluorescence, HTS (AID 431); assay type: functional; conditions: Homo sapiens;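 further: cell line used: HPDE-C7K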
[27] = Luminescence-based cell-based high throughput dose response assay to identify activators of the DAF-12 from the parasite S. stercoralis (ssDAF-12).; assay type: functional
[28] = target: T4, Oxysterols receptor LXR-beta (Homo sapiens, UniProt P55055); assay: LXR agonists, Gal4 luciferase reporter, dose response, counter-screen for ssDAF-12 agonist project, cell-based, luminescence, HEK293, S. stercoralis campaign (AID 720737); assay type: functional; conditions: read-out: IC50 (the source's name)
T4 sequence (P55055 whole entry): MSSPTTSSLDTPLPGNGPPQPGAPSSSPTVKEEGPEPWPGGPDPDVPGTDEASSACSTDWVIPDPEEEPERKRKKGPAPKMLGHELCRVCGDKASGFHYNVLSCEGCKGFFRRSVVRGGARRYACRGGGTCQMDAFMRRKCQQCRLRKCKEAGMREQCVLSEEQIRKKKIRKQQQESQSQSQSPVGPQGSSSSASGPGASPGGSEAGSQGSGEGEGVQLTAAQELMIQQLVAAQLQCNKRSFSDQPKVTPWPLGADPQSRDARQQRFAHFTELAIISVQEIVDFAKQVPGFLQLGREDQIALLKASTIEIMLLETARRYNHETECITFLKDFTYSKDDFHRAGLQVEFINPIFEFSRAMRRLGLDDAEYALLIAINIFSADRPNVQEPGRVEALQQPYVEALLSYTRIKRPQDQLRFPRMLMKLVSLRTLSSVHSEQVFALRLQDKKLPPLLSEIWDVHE

[29] = target: Dual specificity tyrosine-phosphorylation-regulated kinase 1A (Rattus norvegicus, UniProt Q63470); assay type: biochemical, Homo sapiens
[30] = target: Peroxisome proliferator-activated receptor gamma/Nuclear receptor corepressor 2 (Homo sapiens, UniProt P37231+Q9Y618); assay type: functional
Sequence of Peroxisome proliferator-activated receptor gamma/Nuclear receptor corepressor 2 (P37231 whole entry): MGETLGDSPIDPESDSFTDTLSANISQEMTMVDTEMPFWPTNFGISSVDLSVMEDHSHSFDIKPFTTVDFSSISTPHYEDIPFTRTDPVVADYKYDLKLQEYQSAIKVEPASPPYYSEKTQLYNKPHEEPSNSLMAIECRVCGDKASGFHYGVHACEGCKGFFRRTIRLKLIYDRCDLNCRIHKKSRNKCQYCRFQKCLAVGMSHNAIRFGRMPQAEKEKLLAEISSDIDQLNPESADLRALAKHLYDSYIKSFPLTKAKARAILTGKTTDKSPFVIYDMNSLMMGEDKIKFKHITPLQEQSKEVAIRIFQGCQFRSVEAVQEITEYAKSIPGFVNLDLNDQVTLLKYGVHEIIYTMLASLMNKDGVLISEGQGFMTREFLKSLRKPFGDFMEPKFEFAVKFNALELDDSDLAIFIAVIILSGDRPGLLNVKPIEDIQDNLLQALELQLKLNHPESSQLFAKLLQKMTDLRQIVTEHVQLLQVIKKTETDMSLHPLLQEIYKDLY
Sequence of Peroxisome proliferator-activated receptor gamma/Nuclear receptor corepressor 2 (Q9Y618 whole entry): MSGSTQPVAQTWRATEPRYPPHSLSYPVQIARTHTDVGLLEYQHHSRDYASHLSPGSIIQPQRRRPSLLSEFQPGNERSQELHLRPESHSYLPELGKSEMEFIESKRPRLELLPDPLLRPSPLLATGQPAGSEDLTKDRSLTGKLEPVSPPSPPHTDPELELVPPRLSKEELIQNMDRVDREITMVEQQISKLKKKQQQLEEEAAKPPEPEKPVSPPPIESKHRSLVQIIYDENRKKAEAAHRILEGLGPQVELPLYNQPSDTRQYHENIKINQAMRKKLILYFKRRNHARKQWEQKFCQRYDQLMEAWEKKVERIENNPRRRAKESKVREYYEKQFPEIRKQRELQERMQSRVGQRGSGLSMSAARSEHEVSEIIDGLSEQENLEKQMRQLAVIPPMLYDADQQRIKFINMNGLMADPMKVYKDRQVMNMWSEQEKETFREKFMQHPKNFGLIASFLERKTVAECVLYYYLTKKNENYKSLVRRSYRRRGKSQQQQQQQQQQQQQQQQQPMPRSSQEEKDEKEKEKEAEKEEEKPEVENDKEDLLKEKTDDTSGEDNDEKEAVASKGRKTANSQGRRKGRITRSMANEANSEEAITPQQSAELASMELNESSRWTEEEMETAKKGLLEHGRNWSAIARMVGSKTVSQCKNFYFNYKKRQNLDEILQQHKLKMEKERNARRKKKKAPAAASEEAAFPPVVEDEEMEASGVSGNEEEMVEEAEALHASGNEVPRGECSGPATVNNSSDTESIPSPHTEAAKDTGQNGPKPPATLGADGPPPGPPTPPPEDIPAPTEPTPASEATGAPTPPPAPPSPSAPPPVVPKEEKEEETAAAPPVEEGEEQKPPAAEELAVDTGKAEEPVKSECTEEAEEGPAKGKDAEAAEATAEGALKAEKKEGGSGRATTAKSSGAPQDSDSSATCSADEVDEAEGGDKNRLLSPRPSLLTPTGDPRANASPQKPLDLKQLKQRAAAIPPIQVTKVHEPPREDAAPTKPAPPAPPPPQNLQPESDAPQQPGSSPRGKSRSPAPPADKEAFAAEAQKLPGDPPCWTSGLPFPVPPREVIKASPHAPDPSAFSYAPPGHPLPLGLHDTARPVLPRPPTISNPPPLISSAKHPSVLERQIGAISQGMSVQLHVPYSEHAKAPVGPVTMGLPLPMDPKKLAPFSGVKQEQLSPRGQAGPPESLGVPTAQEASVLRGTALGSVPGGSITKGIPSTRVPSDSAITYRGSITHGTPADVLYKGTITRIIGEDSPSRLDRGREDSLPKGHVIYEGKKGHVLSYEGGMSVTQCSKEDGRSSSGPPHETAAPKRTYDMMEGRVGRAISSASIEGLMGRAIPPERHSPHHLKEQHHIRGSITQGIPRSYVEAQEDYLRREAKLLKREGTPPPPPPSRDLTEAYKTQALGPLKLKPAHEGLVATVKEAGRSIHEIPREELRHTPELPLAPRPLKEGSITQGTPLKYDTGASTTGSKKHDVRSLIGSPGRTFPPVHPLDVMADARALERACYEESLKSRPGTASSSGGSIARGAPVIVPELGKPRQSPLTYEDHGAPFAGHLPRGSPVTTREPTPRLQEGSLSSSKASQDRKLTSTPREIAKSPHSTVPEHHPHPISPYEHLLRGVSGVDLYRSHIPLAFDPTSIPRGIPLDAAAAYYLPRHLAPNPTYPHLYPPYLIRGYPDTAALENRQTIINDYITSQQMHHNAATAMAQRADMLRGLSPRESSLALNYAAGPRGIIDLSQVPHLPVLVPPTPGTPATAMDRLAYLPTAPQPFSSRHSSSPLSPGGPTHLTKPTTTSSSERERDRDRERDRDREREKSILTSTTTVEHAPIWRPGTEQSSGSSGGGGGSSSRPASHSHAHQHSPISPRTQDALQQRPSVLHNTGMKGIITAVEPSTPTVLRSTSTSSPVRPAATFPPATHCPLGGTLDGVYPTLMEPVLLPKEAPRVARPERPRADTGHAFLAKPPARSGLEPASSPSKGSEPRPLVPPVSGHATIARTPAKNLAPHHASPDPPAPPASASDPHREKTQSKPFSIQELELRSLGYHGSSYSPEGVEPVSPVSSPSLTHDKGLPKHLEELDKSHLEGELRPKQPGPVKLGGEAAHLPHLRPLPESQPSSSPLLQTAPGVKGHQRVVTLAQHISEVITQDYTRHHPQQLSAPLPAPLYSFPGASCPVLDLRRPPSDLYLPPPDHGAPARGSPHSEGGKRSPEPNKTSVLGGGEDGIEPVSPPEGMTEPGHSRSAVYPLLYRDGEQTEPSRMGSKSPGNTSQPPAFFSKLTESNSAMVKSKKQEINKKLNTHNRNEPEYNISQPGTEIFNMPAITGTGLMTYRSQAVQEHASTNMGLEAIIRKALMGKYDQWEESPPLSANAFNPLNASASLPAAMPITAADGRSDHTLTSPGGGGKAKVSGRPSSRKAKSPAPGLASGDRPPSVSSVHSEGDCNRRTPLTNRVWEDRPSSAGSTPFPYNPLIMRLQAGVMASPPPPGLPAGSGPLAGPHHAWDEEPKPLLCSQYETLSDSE

[31] = target: Photoreceptor-specific nuclear receptor (Homo sapiens, UniProt Q9Y5X4); assay type: functional;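 further: potency for compounds that break the NR2E3 corepressor complex and count as activators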

Sequence of Cyclin-dependent kinase 5/CDK5 activator 1 (Q00535 whole entry): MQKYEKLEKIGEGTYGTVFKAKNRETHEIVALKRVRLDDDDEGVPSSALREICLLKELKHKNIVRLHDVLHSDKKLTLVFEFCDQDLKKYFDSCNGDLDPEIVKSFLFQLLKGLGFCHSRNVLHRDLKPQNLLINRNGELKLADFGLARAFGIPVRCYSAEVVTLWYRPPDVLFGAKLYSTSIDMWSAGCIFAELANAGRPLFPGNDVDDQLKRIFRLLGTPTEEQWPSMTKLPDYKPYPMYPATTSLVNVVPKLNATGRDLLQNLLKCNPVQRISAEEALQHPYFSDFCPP
Sequence of Cyclin-dependent kinase 5/CDK5 activator 1 (Q15078 whole entry, further chain): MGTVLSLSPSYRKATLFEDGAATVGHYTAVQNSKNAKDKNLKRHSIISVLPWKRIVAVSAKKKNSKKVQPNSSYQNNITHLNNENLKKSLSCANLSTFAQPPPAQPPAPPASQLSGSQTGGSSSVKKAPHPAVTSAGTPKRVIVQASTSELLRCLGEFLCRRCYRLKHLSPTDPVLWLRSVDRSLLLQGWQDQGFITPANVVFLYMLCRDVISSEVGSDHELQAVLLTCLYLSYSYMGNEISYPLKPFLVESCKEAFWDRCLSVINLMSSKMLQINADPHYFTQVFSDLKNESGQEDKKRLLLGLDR
Sequence of Glyceraldehyde-3-phosphate dehydrogenase (P04406 whole entry): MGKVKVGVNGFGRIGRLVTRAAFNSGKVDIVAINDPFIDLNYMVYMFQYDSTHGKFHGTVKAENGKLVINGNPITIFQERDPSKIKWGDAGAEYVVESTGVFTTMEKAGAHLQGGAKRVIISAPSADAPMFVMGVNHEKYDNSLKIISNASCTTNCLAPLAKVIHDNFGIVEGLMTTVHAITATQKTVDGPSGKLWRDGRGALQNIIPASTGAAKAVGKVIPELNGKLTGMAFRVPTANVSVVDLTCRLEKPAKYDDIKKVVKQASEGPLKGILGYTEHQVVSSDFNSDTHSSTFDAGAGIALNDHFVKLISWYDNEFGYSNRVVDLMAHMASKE

In the case of `CCN1CCN(C2=C(Cl)C(=O)N(c3ccc(C)cc3)C2=O)CC1`, the IC50 [1] is reported as > 50 µM (inconclusive).
With `Nc1ccc(-c2cnc(N)c(C(=O)c3cccnc3)n2)cn1` the AC50 [2] was 36.7 µM (active).
In the case of `CCOC(=O)c1cnc(-n2nc(C)cc2C)nc1NC1CCCCC1`, the IC50 [3] is reported as 6.65 µM (active), the EC50 [4] is reported as 14.5 µM (inactive) and the EC50 [5] is reported as 1.82 µM (active). The AC50 [6] was 35.5 µM (active), the EC50 [7] was 1.2 µM (active) and the AC50 [8] was 21.3 µM (active). For the same compound, the AC50 [9] was 4.48 µM (active), the IC50 [10] was > 67 µM (not active) and the AC50 [11] was 18.1 µM (active). The IC50 [12] was 4.39 µM (active), the AC50 [13] was 3.01 µM (active) and the IC50 [14] was > 29.9 µM (inactive). For the same compound, the CC50 [15] was 11.5 µM (active), the AC50 [16] was 33.4 µM (active) and the AC50 [17] was 3.29 µM (active). For the same compound, the EC50 [18] was 12.8 µM (active), the EC50 [19] was 2.5 µM (active) and the AC50 [20] was 27.1 µM (active). For the same compound, the IC50 [21] was 7.02 µM (active).
With `CCN(CC)c1ccc2c(Cl)c(Br)c(=O)oc2c1` the EC50 [7] was 2.96 µM (active), the IC50 [12] was 2.53 µM (active) and the EC50 [22] was 3.1 µM (active). The CC50 [23] was > 40 µM (active), the EC50 [24] was 2.75 µM (inconclusive) and the IC50 [25] was < 0.5 µM (active). The EC50 [18] was 4.88 µM (active) and the EC50 [26] was 2.08 µM (active).
In the case of `O=C(O)c1ccc(/C=N/Nc2ccc(C(F)(F)F)cn2)cc1`, the AC50 [2] is reported as 5.54 µM (active), the IC50 [27] is reported as > 67.6 µM (inactive) and the EC50 [28] is reported as > 67.6 µM (inactive). For the same compound, the AC50 [29] was 7.95 µM (active).
For `N#Cc1ccc(Cl)cc1NC(=O)COC(=O)c1ccc2c(c1)OCCO2`, the IC50 [30] was 2.78 µM (active) and the IC50 [31] was > 39.8 µM (not active).
